Data as given in patent US12622909B2, “Allosteric EGFR inhibitors and methods of use thereof” (Dana-Farber Cancer Institute, Inc., priority 2019, dated 2026).
Read-outs that look alike come from different tables or passages of the source.

Columns and labels:
EGFR L858R = EGFR L858R (Homo sapiens, UniProt P00533, L858R); test: HTRF-based EGFR biochemical assay (L858R); conditions: 100 μM ATP, enzyme 0.1 nM
Method in brief: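 Reaction started with 100 μM ATP (final) for 20 min, then quenched with EDTA. Phosphorylation detected by HTRF (Eu-cryptate anti-phosphotyrosine/Streptavidin-XL665, 665/620 nm).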

EGFR L858R/T790M = EGFR L858R/T790M (Homo sapiens, UniProt P00533, L858R/T790M); test: HTRF-based EGFR biochemical assay (L858R/T790M); conditions: 100 μM ATP, enzyme 0.02 nM
Method in brief: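 Mutant EGFR preincubated 30 min with compound at room temperature, then reacted 20 min with 1 μM biotinylated tyrosine kinase peptide and 100 μM ATP in 50 mM HEPES pH 7.0, 5 mM MgCl2, 1 mM MnCl2, 0.01% BSA, 2 mM TCEP, 0.1 mM NaVO4. Phosphorylation read by HTRF.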

[1] = target: EGFR L858R/T790M mutant Ba/F3 cells (Homo sapiens, UniProt P00533, T790M/L858R, cells depend on it); test: Ba/F3 cell proliferation (Cell Titer Glo); format: cell-based, murine; conditions: 72 hours
Method in brief: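 Ba/F3 cells retrovirally transduced with the EGFR construct and puromycin-selected (2 μg/ml), grown in RPMI 1640 with 10% FBS. Viability read by Cell Titer Glo luminescence (ATP content), triplicate points, experiments repeated at least three times. Curves fitted by non-linear sigmoidal dose-response regression.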

[2] = in combination with 1 μg/ml cetuximab, read-out: Cell IC50 BaF3 L858R/T790M compound + cetuximab
[3] = single agent, read-out: Cell IC50 EGFR BaF3 L858R/T790M

Sequence of EGFR L858R/T790M mutant Ba/F3 cells (P00533 whole entry T790M/L858R): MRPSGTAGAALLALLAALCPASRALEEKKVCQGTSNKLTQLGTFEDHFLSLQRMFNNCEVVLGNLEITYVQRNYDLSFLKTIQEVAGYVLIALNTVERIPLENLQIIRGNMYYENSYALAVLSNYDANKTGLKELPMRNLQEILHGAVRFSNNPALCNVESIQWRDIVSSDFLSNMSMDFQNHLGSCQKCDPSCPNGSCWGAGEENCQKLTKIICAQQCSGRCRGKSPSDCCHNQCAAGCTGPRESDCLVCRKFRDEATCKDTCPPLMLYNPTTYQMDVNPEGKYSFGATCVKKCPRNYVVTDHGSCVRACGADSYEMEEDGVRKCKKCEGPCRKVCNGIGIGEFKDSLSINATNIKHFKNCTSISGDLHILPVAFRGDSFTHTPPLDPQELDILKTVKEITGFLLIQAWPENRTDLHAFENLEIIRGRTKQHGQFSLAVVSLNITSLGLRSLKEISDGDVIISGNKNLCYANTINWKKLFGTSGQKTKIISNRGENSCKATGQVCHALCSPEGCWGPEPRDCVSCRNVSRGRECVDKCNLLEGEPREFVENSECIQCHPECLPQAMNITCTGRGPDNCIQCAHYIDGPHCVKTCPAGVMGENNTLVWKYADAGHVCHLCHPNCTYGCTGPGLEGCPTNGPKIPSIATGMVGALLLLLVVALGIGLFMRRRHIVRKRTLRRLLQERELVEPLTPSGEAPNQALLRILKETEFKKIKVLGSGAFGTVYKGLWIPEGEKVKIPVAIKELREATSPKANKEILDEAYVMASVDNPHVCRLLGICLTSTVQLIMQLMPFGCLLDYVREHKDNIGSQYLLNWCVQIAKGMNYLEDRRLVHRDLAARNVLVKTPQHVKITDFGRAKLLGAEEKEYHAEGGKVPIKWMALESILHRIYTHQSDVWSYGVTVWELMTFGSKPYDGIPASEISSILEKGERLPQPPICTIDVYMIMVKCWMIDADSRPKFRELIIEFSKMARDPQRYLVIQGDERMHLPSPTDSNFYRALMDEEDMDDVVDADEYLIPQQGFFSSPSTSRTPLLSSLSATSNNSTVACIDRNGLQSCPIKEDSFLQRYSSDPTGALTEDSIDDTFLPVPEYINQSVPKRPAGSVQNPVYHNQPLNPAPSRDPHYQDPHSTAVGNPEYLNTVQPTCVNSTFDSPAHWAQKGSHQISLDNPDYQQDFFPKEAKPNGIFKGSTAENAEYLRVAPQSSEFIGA
Sequence of EGFR L858R (P00533 25-1210 L858R): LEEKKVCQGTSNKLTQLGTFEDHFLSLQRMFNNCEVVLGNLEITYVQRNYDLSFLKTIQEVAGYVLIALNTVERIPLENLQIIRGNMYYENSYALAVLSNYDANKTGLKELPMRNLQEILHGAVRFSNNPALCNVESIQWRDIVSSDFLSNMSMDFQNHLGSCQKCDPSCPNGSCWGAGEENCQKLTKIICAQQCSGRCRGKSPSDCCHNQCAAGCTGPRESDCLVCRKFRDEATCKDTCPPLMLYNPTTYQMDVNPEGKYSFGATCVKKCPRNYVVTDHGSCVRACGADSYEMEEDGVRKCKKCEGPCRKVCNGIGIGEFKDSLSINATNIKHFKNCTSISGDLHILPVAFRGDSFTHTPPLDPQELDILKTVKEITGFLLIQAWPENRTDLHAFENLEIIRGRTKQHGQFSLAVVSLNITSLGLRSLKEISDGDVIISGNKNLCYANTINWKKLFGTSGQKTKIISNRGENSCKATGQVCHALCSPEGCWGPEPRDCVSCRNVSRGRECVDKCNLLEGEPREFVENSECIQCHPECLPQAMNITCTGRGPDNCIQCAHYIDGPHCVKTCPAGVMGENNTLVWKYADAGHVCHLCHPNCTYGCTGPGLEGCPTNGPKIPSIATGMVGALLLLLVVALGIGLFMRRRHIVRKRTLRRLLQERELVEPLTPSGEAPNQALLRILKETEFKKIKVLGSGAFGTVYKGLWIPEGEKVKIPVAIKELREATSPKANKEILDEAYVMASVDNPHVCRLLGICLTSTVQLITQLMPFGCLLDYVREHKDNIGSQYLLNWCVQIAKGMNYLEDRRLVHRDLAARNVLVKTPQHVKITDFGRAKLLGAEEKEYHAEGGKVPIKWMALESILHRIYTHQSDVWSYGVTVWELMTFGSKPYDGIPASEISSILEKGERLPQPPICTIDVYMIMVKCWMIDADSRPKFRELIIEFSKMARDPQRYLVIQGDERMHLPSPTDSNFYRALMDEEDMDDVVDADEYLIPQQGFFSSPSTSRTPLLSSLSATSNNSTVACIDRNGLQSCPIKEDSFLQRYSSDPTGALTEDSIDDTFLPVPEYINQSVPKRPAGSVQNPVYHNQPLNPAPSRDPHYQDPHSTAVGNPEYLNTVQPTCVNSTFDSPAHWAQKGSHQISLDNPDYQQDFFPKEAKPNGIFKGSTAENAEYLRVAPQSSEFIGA
Sequence of EGFR L858R/T790M (P00533 25-1210 T790M/L858R): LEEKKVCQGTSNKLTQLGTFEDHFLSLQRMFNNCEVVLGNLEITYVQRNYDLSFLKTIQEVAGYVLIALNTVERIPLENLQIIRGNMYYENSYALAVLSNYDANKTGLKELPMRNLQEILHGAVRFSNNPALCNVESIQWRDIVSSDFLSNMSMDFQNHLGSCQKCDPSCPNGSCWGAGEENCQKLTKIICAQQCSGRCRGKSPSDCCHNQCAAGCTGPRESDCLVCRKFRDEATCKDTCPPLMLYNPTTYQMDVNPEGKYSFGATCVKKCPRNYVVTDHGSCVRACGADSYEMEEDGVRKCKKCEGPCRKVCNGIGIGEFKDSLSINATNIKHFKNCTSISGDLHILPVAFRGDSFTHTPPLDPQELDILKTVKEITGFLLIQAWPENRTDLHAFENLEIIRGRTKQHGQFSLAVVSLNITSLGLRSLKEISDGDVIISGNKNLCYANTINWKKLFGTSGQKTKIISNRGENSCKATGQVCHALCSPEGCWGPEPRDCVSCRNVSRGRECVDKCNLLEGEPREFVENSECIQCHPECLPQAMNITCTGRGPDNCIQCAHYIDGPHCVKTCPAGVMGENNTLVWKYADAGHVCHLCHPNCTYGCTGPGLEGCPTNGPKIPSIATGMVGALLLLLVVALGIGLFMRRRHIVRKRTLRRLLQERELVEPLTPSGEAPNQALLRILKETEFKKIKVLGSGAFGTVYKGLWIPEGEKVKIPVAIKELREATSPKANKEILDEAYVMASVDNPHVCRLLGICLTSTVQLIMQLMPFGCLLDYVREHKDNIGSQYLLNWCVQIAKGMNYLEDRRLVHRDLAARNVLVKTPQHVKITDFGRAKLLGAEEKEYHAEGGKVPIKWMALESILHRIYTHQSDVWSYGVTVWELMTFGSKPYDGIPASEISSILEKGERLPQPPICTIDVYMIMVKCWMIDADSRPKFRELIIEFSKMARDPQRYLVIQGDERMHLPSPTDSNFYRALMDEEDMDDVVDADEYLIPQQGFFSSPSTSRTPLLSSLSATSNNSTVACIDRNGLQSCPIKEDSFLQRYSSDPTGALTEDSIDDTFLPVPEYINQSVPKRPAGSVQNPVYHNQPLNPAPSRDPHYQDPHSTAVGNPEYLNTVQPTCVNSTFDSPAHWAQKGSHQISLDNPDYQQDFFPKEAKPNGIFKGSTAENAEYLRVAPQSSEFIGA

Structure (SMILES)	IC50 (EGFR L858R)	IC50 (EGFR L858R/T790M)	GI50 [1, 2]	GI50 [1, 3]
CN1CCN(c2ccc(-c3ccc4ncn(C(C(=O)Nc5nccs5)c5ccccc5)c(=O)c4c3F)cc2)CC1 (stereo not drawn) [Compound 071, 2-(5-Fluoro-6-(4-(4-methyl-piperazin-1-yl)phenyl)-4-oxo-quinazolin-3(4H)-yl)-2-phenyl-N-(thiazol-2-yl)acetamide]	0.005 µM	0.0007 µM	0.02 µM	2.37 µM
O=C(Nc1nccs1)C(c1ccccc1)n1cc(F)c2cc(Br)ccc2c1=O (stereo not drawn) [Compound 006, 2-(6-Bromo-4-fluoro-1-oxo-isoquinolin-2(1H)-yl)-2-phenyl-N-(thiazol-2-yl)acetamide]	> 1 µM	0.036 µM	1.8 µM	> 10 µM
O=C(Nc1nccs1)C(c1cccnc1)n1cnc2ccc(Br)cc2c1=O (stereo not drawn) [Compound 062, 2-(6-Bromo-4-oxoquinazolin-3(4H)-yl)-2-(pyridin-3-yl)-N-(thiazol-2-yl)-acetamide]	> 1 µM	0.22 µM	> 10 µM	> 10 µM
CN1CCN(c2ccc(-c3ccc4ncn(C(C(=O)Nc5nccs5)c5cccnc5)c(=O)c4c3)cc2)CC1 (stereo not drawn) [Compound 064, 2-(6-(4-(4-Methylpiperazin-1-yl)-phenyl)-4-oxoquinazolin-3(4H)-yl)-2-(pyridin-3-yl)-N-(thiazol-2-yl)-acetamide]	0.078 µM	0.005 µM	0.49 µM	6.15 µM
O=C(Nc1nccs1)C(c1ccccc1)n1ncc2ccc(Br)cc2c1=O (stereo not drawn) [Compound 041, 2-(7-Bromo-1-oxophthalazin-2(1H)-yl)-2-phenyl-N-(thiazol-2-yl)-acetamide]	> 1 µM	0.031 µM	> 10 µM	> 10 µM
CN1CCN(c2ccc(-c3ccc4ncn(C(C(=O)Nc5ccccn5)c5cccc(F)c5)c(=O)c4c3)cc2)CC1 (stereo not drawn) [Compound 033, 2-(3-Fluorophenyl)-2-(6-(4-(4-methyl-piperazin-1-yl)phenyl)-4-oxo-quinazolin-3(4H)-yl)-N-(pyridin-2-yl)-acetamide]	0.051 µM	0.002 µM	0.044 µM	1.55 µM
O=C(Nc1nccs1)C(c1ccccc1)n1cnc2cc(Br)c(F)cc2c1=O (stereo not drawn) [Compound 005, 2-(7-Bromo-6-fluoro-4-oxoquinazolin-3(4H)-yl)-2-phenyl-N-(thiazol-2-yl)acetamide]	> 1 µM	0.091 µM	4.8 µM	> 10 µM
CN1CCC(c2ccc(-c3ccc4ncn(C(C(=O)Nc5nccs5)c5cc(F)ccc5O)c(=O)c4c3F)cc2)CC1 (stereo not drawn) [Compound 083, 2-(5-Fluoro-2-hydroxyphenyl)-2-(5-fluoro-6-(4-(1-methylpiperidin-4-yl)phenyl)-4-oxoquinazolin-3(4H)-yl)-N-(thiazol-2-yl)acetamide]	0.0002 µM	0.0001 µM	0.009 µM	0.04 µM

Results, then the compound that gave them:

IC50 (EGFR L858R)	IC50 (EGFR L858R/T790M)	GI50 [1, 2]	GI50 [1, 3]	Structure (SMILES)
0.003 µM	0.001 µM	0.02 µM	1.19 µM	CN1CCC(c2ccc(-c3ccc4c(=O)n(C(C(=O)Nc5nccs5)c5ccccc5)ccc4c3)cc2)CC1 (stereo not drawn) [Compound 016, 2-(6-(4-(1-Methylpiperidin-4-yl)-phenyl)-1-oxoisoquinolin-2(1H)-yl)-2-phenyl-N-(thiazol-2-yl)acetamide]
0.008 µM	0.002 µM	0.012 µM	0.93 µM	CN1CCC(c2ccc(-c3cnc4ncn(C(C(=O)Nc5nccs5)c5ccccc5)c(=O)c4c3)cc2)CC1 (stereo not drawn) [Compound 058, 2-(6-(4-(1-Methylpiperidin-4-yl)phenyl)-4-oxopyrido[2,3-d]-pyrimidin-3(4H)-yl)-2-phenyl-N-(thiazol-2-yl)acetamide]
0.245 µM	0.016 µM	2 µM	> 10 µM	O=C(Nc1nccs1)C(c1ccccc1)n1ccc2cc(Br)ccc2c1=O (stereo not drawn) [Compound 003, 2-(6-Bromo-1-oxoisoquinolin-2(1H)-yl)-2-phenyl-N-(thiazol-2-yl)-acetamide]
0.521 µM	0.029 µM	0.79 µM	> 10 µM	O=C(Nc1nccs1)C(c1ccccc1)n1ccc2ccc(Br)cc2c1=O (stereo not drawn) [Compound 004, 2-(7-Bromo-1-oxoisoquinolin-2(1H)-yl)-2-phenyl-N-(thiazol-2-yl)-acetamide]
0.048 µM	0.008 µM	0.084 µM	1.37 µM	CN1CCN(c2ccc(-c3cnc4ncn(C(C(=O)Nc5nccs5)c5ccccc5)c(=O)c4c3)cc2)CC1 (stereo not drawn) [Compound 059, 2-(6-(4-(4-Methylpiperazin-1-yl)-phenyl)-4-oxopyrido[2,3-d]-pyrimidin-3(4H)-yl)-2-phenyl-N-(thiazol-2-yl)acetamide]
0.004 µM	0.0003 µM	0.023 µM	0.92 µM	CN1CCC(c2ccc(-c3ccc4c(F)cn(C(C(=O)Nc5nccs5)c5ccccc5)c(=O)c4c3)cc2)CC1 (stereo not drawn) [Compound 036, 2-(4-Fluoro-7-(4-(1-methylpiperidin-4-yl)phenyl)-1-oxoisoquinolin-2(1H)-yl)-2-phenyl-N-(thiazol-2-yl)acetamide]
> 1 µM	0.297 µM	4.1 µM	4.1 µM	Cc1nc2ccc(-c3ccc(N4CCN(C)CC4)cc3)cc2c(=O)n1C(C(=O)Nc1nccs1)c1ccccc1 (stereo not drawn) [Compound 045, 2-(2-Methyl-6-(4-(4-methylpiperazin-1-yl)phenyl)-4-oxoquinazolin-3(4H)-yl)-2-phenyl-N-(thiazol-2-yl)-acetamide]
